SMILES strings stand for the structures. pIC50: −log10 of the molar value.

Assay [1] concerns K562. Nature of the assay: Cytotoxicity on K562 cancer cell line. As to conditions: Homo sapiens; K562 chronic myelogenous leukemia; 96 h; 0.01-100 μM. The class given is cell-based. As to the method: (§1) The effect of the compounds described herein on tumor cells was determined by the assay described by Latham et al., Oncogene 12:827-837 (1996). Tumor cells K562 (chronic myelogenous leukemia; leukemia cell line +ve for Bcr-Abl) or DU145 (prostate cancer) were plated in 12-well dishes at a cell density of 2.5×10^4 cells per well. The plated cells were treated 24 h. later with a DMSO solution of a compound as described herein at multiple concentrations ranging from 0.01 μM to 100 μM. The plates were examined 96 h. later under an inverted microscope, Olympus CK-2 using a 10× objective, and compound activity was noted by physical observation. When necessary, the total number of viable cells was determined by trypsinizing the wells and counting the number of viable cells, as determined by trypan blue exclusion, using a hemacytometer.

Assay [2] concerns DU145. The experiment in a line: Cytotoxicity on DU145 cancer cell line. The class given is cell-based. As to conditions: Homo sapiens, DU-145; DU145 prostate cancer; 96 h; 0.01-100 μM. How it is done:
as §1

Broadly, the pIC50 is −log10 of the IC50, conventionally taken in molar units. Read a high pIC50 as a small IC50. As to `CN1CCN(c2ccc(Nc3ncc(/C=C/C#N)c(N)n3)cc2)CC1` [Compound 8a, 3-{4-Amino-2-[4-(4-methylpiperazin-1-yl)phenylamino]pyrimidin-5-yl}acrylonitrile], the pIC50 in assay [1] and in assay [2] was 4.60 to 6.00 each time.

Take `CN1CCN(c2ccc(Nc3ncc(/C=C/C#N)c(Nc4ccn(C)n4)n3)cc2)CC1` [Compound 8aa, (E)-3-(4-[(1-Methyl-1H-pyrazol-3-yl)amino]-2-{[4-(4-methylpiperazin-1-yl)phenyl]amino}pyrimidin-5-yl)acrylonitrile]: the pIC50 in assay [1] and in assay [2] was 4.60 to 6.00 throughout.

Consider `CNc1nc(Nc2ccc(N3CCN(C)CC3)cc2)ncc1/C=C/C#N` [Compound 8b, 3-{4-Methylamino-2-[4-(4-methylpiperazin-1-yl)-phenylamino]pyrimidin-5-yl}acrylonitrile], for which the pIC50 in assay [1] is over 6.00; in assay [2] it was 4.60 to 6.00.

With `COc1cc(N2CCN(C)CC2)ccc1Nc1ncc(/C=C/C#N)c(NC2CCCC2)n1` [Compound 8bb, (E)-3-[4-(Cyclopentylamino)-2-{[2-methoxy-4-(4-methylpiperazin-1-yl)phenyl]amino}pyrimidin-5-yl]acrylonitrile], the negative-log IC50 (pIC50) in assay [1] and in assay [2] was 4.60 to 6.00 throughout.

Regarding `CCNc1nc(Nc2ccc(N3CCN(C)CC3)cc2)ncc1/C=C/C#N` [Compound 8c, 3-{4-Ethylamino-2-[4-(4-methylpiperazin-1-yl)phenylamino]pyrimidin-5-yl}acrylonitrile], the pIC50 in assay [1] and in assay [2] was over 6.00 throughout.

With `CCCNc1nc(Nc2ccc(N3CCN(C)CC3)cc2)ncc1/C=C/C#N` [Compound 8d, 3-{4-Propylamino-2-[4-(4-methylpiperazin-1-yl)phenylamino]pyrimidin-5-yl}acrylonitrile], the pIC50 in assay [1] and in assay [2] was over 6.00 each time.

With `CC(C)Nc1nc(Nc2ccc(N3CCN(C)CC3)cc2)ncc1/C=C/C#N` [Compound 8e, 3-{4-Isopropylamino-2-[4-(4-methylpiperazin-1-yl)phenylamino]pyrimidin-5-yl}acrylonitrile], the pIC50 in assay [1] and in assay [2] was over 6.00 each time.

For `CN1CCN(c2ccc(Nc3ncc(/C=C/C#N)c(NCC4CC4)n3)cc2)CC1` [Compound 8f, 3-{4-(Cyclopropylmethyl)amino-2-[4-(4-methylpiperazin-1-yl)phenylamino]pyrimidin-5-yl}acrylonitrile], the pIC50 in assay [1] and in assay [2] was over 6.00 each time.

Regarding `CN1CCN(c2ccc(Nc3ncc(/C=C/C#N)c(NC4CC4)n3)cc2)CC1` [Compound 8g, 3-{4-Cyclopropylamino-2-[4-(4-methylpiperazin-1-yl)phenylamino]pyrimidin-5-yl}acrylonitrile], the pIC50 in assay [1] and in assay [2] was over 6.00 in each case.

As for `CN1CCN(c2ccc(Nc3ncc(/C=C/C#N)c(NC4CCCCC4)n3)cc2)CC1` [Compound 8i, 3-{4-Cyclohexylamino-2-[4-(4-methylpiperazin-1-yl)phenylamino]pyrimidin-5-yl}acrylonitrile], the figures for the pIC50 in assay [1] and in assay [2] were over 6.00 and 4.60 to 6.00, respectively.

Turning to `N#C/C=C/c1cnc(Nc2ccc(N3CCOCC3)cc2)nc1NC1CCCC1` [Compound 8j, 3-{4-Cyclopentylamino-2-[(4-morpholin-4-yl)phenylamino]pyrimidin-5-yl}acrylonitrile], the negative logarithm of the IC50 (pIC50) in assay [1] and in assay [2] was 4.60 to 6.00 in each case.

Regarding `N#C/C=C/c1cnc(Nc2ccc3[nH]ccc3c2)nc1NC1CCCC1` [Compound 8k, 3-[4-Cyclopentylamino-2-(1H-indol-5-ylamino)pyrimidin-5-yl]acrylonitrile], the pIC50 was over 6.00 in assay [1] and 4.60 to 6.00 in assay [2].

As for `CN1CCC(c2ccc(Nc3ncc(/C=C/C#N)c(NC4CCCC4)n3)cc2)CC1` [Compound 8l, 3-{4-Cyclopentylamino-2-[4-(1-methylpiperidin-4-yl)phenylamino]pyrimidin-5-yl}acrylonitrile], the pIC50 in assay [1] and in assay [2] was 4.60 to 6.00 in each case.

Consider `CNc1nc(Nc2ccc3[nH]ccc3c2)ncc1/C=C/C#N` [Compound 8m, 3-[2-(1H-Indol-5-ylamino)-4-(methylamino)pyrimidin-5-yl]acrylonitrile], for which the pIC50 in assay [1] and in assay [2] was over 6.00 each time.

On to `COc1ccc(Nc2ncc(/C=C/C#N)c(NC3CCCC3)n2)cc1` [Compound 8n, 3-{4-(Cyclopentylamino)-2-[(4-methoxyphenyl)amino]pyrimidin-5-yl)acrylonitrile], for which the pIC50 in assay [1] and in assay [2] was 4.60 to 6.00 throughout.

Regarding `CCN1CCN(c2ccc(Nc3ncc(/C=C/C#N)c(NC4CCCC4)n3)cc2)CC1` [Compound 8o, 3-{4-Cyclopentylamino-2-[4-(1-ethylpiperazin-4-yl)-phenylamino]-pyrimidin-5-yl}acrylonitrile], the pIC50 in assay [1] and in assay [2] was over 6.00 in each case.

For `N#C/C=C/c1cnc(NCc2ccccc2)nc1NC1CCCC1` [Compound 8p, 3-[2-(Benzylamino)-4-(cyclopentylamino)pyrimidin-5-yl]acrylonitrile], the pIC50 in assay [1] and in assay [2] was 4.30 to 4.60 in each case.

`CN1CCN(c2ccc(Nc3ncc(/C=C/C#N)c(NC4CCCC4)n3)nc2)CC1` [Compound 8q, 3-(4-(Cyclopentylamino)-2-((5-(4-methylpiperazin-1-yl)pyridin-2-yl)amino)pyrimidin-5-yl)acrylonitrile]: the pIC50 in assay [1] and in assay [2] was over 6.00 throughout.

With `N#C/C=C/c1cnc(Nc2ccc(N3CCOCC3)cc2)nc1NCC1CC1` [Compound 8r, 3-{4-[N-(Cyclopropylmethyl)amino]-2-[4-(morpholin-4-yl)phenylamino]pyrimidin-5-yl}acrylonitrile], the pIC50 in assay [1] and in assay [2] was over 6.00 in each case.

Consider `COc1ccc(Nc2ncc(/C=C/C#N)c(NCC3CC3)n2)cc1` [Compound 8s], for which the pIC50 in assay [1] and in assay [2] was 4.60 to 6.00 throughout.

As to `CCN1CCN(c2ccc(Nc3ncc(/C=C/C#N)c(NCC4CC4)n3)cc2)CC1` [Compound 8t, 3-{4-[(Cyclopropylmethyl)amino]-2-[4-(4-ethylpiperazin-1-yl)phenylamino]pyrimidin-5-yl}acrylonitrile], the pIC50 in assay [1] and in assay [2] was over 6.00 each time.

In the case of `N#C/C=C/c1cnc(Nc2ccc3[nH]ccc3c2)nc1NCC1CC1` [Compound 8u, 3-{4-[(Cyclopropylmethyl)amino]-2-[(1H-indol-5-yl)amino]pyrimidin-5-yl)acrylonitrile], the pIC50 in assay [1] and in assay [2] was over 6.00 each time.

Consider `CCN(C)c1nc(Nc2ccc(N3CCN(C)CC3)cc2)ncc1/C=C/C#N` [Compound 8v, 3-{4-(N-Ethyl-N-methylamino)-2-[4-(4-methylpiperazin-1-yl)phenylamino]pyrimidin-5-yl}acrylonitrile], for which the pIC50 in assay [1] and in assay [2] was 4.30 to 4.60 in each case.

In the case of `CN1CCN(c2ccc(Nc3ncc(/C=C/C#N)c(N4CCCC4)n3)cc2)CC1` [Compound 8w, 3-{2-[4-(4-Methylpiperazin-1-yl)phenylamino]-4-(pyrrolidin-1-yl)pyrimidin-5-yl}acrylonitrile], the negative-log IC50 (pIC50) in assay [1] and in assay [2] was 4.60 to 6.00 each time.

`CCN(c1nc(Nc2ccc(N3CCN(C)CC3)cc2)ncc1/C=C/C#N)C1CCCC1` [Compound 8x, 3-{4-(N-Cyclopentyl-N-ethylamino)-2-[4-(4-methylpiperazin-1-yl)phenylamino]pyrimidin-5-yl}acrylonitrile]: the negative-log IC50 (pIC50) in assay [1] and in assay [2] was over 6.00 in each case.

As to `CN1CCN(c2ccc(N(C(=O)CCCC[C@@H]3SC[C@@H]4NC(=O)N[C@@H]43)c3ncc(/C=C/C#N)c(NC4CCCC4)n3)cc2)CC1` [Compound 8y, N-[5-(2-Cyanovinyl)-4-(cyclopentylamino)pyrimidin-2-yl]-N-[4-(4-methylpiperazin-1-yl)phenyl]-5-((3aS,4S,6aR)-2-oxohexahydro-1H-thieno[3,4-d]imidazol-4-yl)pentanamide], the negative-log IC50 (pIC50) in assay [1] and in assay [2] was 4.60 to 6.00 each time.

With `N#C/C=C/c1cnc(N2CCOCC2)nc1NC1CCCC1` [Compound 8z, (E)-3-[4-(Cyclopentylamino)-2-morpholinopyrimidin-5-yl]acrylonitrile], the pIC50 in assay [1] and in assay [2] was 4.60 to 6.00 each time.

Consider `CNc1nc(Nc2ccc3[nH]ccc3c2)ncc1/C=C/S(=O)(=O)c1ccc(F)cc1F` [Compound 15a, 5-{2-[2,4-(Difluorophenyl)sulfonyl]vinyl}-N^2-(1H-indol-5-yl)-N^4-methylpyrimidine-2,4-diamine], for which the pIC50 in assay [1] and in assay [2] was 4.60 to 6.00 in each case.

Regarding `CN1CCN(c2ccc(Nc3ncc(/C=C/S(=O)(=O)c4ccc(F)cc4F)c(NC4CCCC4)n3)cc2)CC1` [Compound 15b, N^4-Cyclopentyl-5-{2-[(2,4-difluorophenyl)sulfonyl]vinyl}-N^2-[4-(4-methylpiperazin-1-yl)phenyl]pyrimidine-2,4-diamine], the pIC50 in assay [1] and in assay [2] was 4.60 to 6.00 throughout.

As for `CNc1nc(Nc2ccc3cc[nH]c3c2)ncc1/C=C/S(=O)(=O)c1ccc(F)cc1F` [Compound 15c, 5-{2-[2,4-(Difluorophenyl)sulfonyl]vinyl}-N^2-(1H-indol-6-yl)-N^4-methylpyrimidine-2,4-diamine], the pIC50 in assay [1] and in assay [2] was 4.60 to 6.00 each time.

`CNc1nc(Nc2ccc(N3CCN(C)CC3)cc2)ncc1/C=C/S(=O)(=O)c1ccc(F)cc1F` [Compound 15d, (E)-5-{2-[(2,4-Difluorophenyl)sulfonyl]vinyl}-N^4-methyl-N^2-[4-(4-methylpiperazin-1-yl)phenyl]pyrimidine-2,4-diamine]: the negative-log IC50 (pIC50) in assay [1] and in assay [2] was 4.60 to 6.00 throughout.

These data come from US9815847B2 (Icahn School of Medicine at Mount Sinai, priority 2013, dated 2017).
